Reference: patent publication US7527021B2, “Non-invasive drug self-administration system for animals” (University of Virginia Patent Foundation, priority 2003, dated 2009)

Legend:
[1] = tested on: mice; experiment: Intranasal aerosol cocaine self-administration, nose-poke frequency (FIG. 4); settings: intra-nasal aerosol; inverted-U dose response, less self-administration at higher and lower concentrations; 4 h sessions
[2] = Cocaine levels in the brains of self-administering animals (ELISA); settings: self-administered aerosol
Protocol: Animals were allowed access to the self administration system of the present invention and the number of nosepokes was recorded using two different concentrations of cocaine (1.8 or 21 mg/kg/spray). Animals were sacrificed within 20 min (animals 3,4) or 1 hr (animals 1,2) of last nosepoke, and all nosepokes occurred within less than 1 hr.

[3] = 20/mg/kg cocaine via IP injection; cited from earlier work

COC(=O)[C@H]1[C@@H](OC(=O)c2ccccc2)C[C@@H]2CC[C@H]1N2C [cocaine]
cocaine concentration at which animals nose-poke most frequently [1]: ~0.9 mg/kg/infusion
Cocaine conc in brain ([2]; animal 1, 6 pokes × 1.8 mg/kg/spray, sacrificed within 1 hr of last nosepoke): 0.08 (mg/kg)
Cocaine conc in brain ([2]; animal 2, 4 pokes × 1.8 mg/kg/spray, sacrificed within 1 hr of last nosepoke): 0.28 mg/kg
Cocaine conc in brain ([2]; animal 3, 1 poke × 21.0 mg/kg/spray, sacrificed within 20 min of last nosepoke): 1.03 mg/kg
Cocaine conc in brain ([2]; animal 4, 2 pokes × 21.0 mg/kg/spray, sacrificed within 20 min of last nosepoke): 2.96 mg/kg
cocaine in the brain [3]: 0.96 mg/kg
